Test results reported in US20040122065A1 (priority 2002, published 2004).

Assay: Pharmacokinetic crossover trial: 2 mg sublingual tablet vs 4 mg commercial oral tizanidine (Zanaflex), plasma tizanidine by HPLC
Assay type: in vivo
Settings: human
Description: Two groups were randomized and there was a one week washout period between administrations. The volunteers were in the fasted state when the drugs were administered. The sublingual tablets were placed under the tongue for 5 minutes and tablet remnants, if any, were swallowed. The oral formulation was administered with a glass of water. Blood samples were taken at 0, 0.5, 1.0, 1.5, 2.0, 2.5, 3.0, 4.0, 5.0, 6.0 and 7.0 hours after administration. […] The samples were blinded from the analysts.

concentration at 0 h (other: sublingual, 2 mg, Plasma Tizanidine Levels, sublingual delivery of 2 mg tizanidine (sublingual tablet), fasted, 0 h after dosing, one column per test subject): < 98.4 ng/g | concentration at 0 h (po, 4 mg): < 98.4 ng/g
Structure (SMILES): Clc1ccc2nsnc2c1NC1=NCCN1 [Tizanidine, 5-Chloro-N-(4,5-dihydro-1H-imidazol-2-yl)-2,1,3-benzothiadiazol-4-amine]
